Experimental data published in patent US20260042731A1, “(2,4-DICHLOROPHENOXY)ACETIC ACID ANALOGS” (CORTEVA AGRISCIENCE LLC, priority 2022, published 2026).
Read-outs that look alike come from different tables or passages of the source.

Assays:
[1] = test system: weeds ABUTH, AMATA, AMBEL, CHEAL, ERICA; assay: Postemergence herbicide evaluation, overall average % weed control across ABUTH, AMATA, AMBEL, CHEAL and ERICA; format: in vivo; conditions: post-emergence, average over five weeds, read-out: Overall Ave % Weed Control; for pest or weed control at 280 g/ha: 280 g ae/ha; for pest or weed control at 560 g/ha: 560 g ae/ha
[2] = test system: Ambrosia artemisiifolia (AMBEL), common ragweed; assay: Postemergence herbicide evaluation, growth of Ambrosia artemisiifolia (AMBEL); format: in vivo; conditions: Ambrosia artemisiifolia, post-emergence, percent reduction in plant size vs untreated control, read-out: AVE. AMBEL; for pest or weed control at 280 g/ha: 280 g ae/ha; for pest or weed control at 560 g/ha: 560 g ae/ha
[3] = test system: Abutilon theophrasti (ABUTH), velvetleaf; assay: Postemergence herbicide evaluation, growth of Abutilon theophrasti (ABUTH); format: in vivo; conditions: Abutilon theophrasti, post-emergence, percent reduction in plant size vs untreated control, read-out: AVE. ABUTH; for pest or weed control at 280 g/ha: 280 g ae/ha; for pest or weed control at 560 g/ha: 560 g ae/ha
[4] = Volatility of compounds measured by thermogravimetric analysis (TGA); format: physicochemical
[5] = test system: glyphosate resistant Conyza canadensis (L.) (ERICA), horseweed; assay: Postemergence herbicide evaluation, growth of Conyza canadensis (ERICA); format: in vivo; conditions: Erigeron canadensis, post-emergence, percent reduction in plant size vs untreated control, read-out: Ave. ERICA; for pest or weed control at 280 g/ha: 280 g ae/ha; for pest or weed control at 560 g/ha: 560 g ae/ha
[6] = test system: Amaranthus rudis (AMATA), tall water hemp; assay: Postemergence herbicide evaluation, growth of Amaranthus rudis (AMATA); format: in vivo; conditions: Amaranthus tuberculatus, post-emergence, percent reduction in plant size vs untreated control, read-out: Ave. AMATA; for pest or weed control at 280 g/ha: 280 g ae/ha; for pest or weed control at 560 g/ha: 560 g ae/ha
[7] = test system: Chenopodium album (CHEAL), common lambsquarters; assay: Postemergence herbicide evaluation, growth of Chenopodium album (CHEAL); format: in vivo; conditions: Chenopodium album, post-emergence, percent reduction in plant size vs untreated control, read-out: Ave. CHEAL; for pest or weed control at 280 g/ha: 280 g ae/ha; for pest or weed control at 560 g/ha: 560 g ae/ha

Row | Compound | pest or weed control at 280 g/ha ([1]; 168 h, 7 DAA) | pest or weed control at 560 g/ha ([1]; 168 h, 7 DAA) | pest or weed control at 560 g/ha ([1]; 336 h, 14 DAA) | pest or weed control at 560 g/ha ([1]; 504 h, 21 DAA) | pest or weed control at 560 g/ha ([2]; 168 h, 7 DAA) | pest or weed control at 560 g/ha ([2]; 336 h, 14 DAA) | pest or weed control at 560 g/ha ([2]; 504 h, 21 DAA) | pest or weed control at 560 g/ha ([3]; 168 h, 7 DAA) | pest or weed control at 560 g/ha ([3]; 336 h, 14 DAA) | pest or weed control at 560 g/ha ([3]; 504 h, 21 DAA) | TGA Data (rate of weight loss, volatility) [4] | pest or weed control at 560 g/ha ([5]; 168 h, 7 DAA) | pest or weed control at 560 g/ha ([5]; 336 h, 14 DAA) | pest or weed control at 560 g/ha ([5]; 504 h, 21 DAA) | pest or weed control at 560 g/ha ([6]; 168 h, 7 DAA) | pest or weed control at 560 g/ha ([6]; 336 h, 14 DAA) | pest or weed control at 560 g/ha ([6]; 504 h, 21 DAA) | pest or weed control at 560 g/ha ([7]; 168 h, 7 DAA) | pest or weed control at 560 g/ha ([7]; 336 h, 14 DAA) | pest or weed control at 560 g/ha ([7]; 504 h, 21 DAA) | also measured
1 | O=C(COc1ccc(Cl)cc1Cl)NOCc1ccc(Cl)cc1 [Compound D16] | 74% | 67.5% | 81.5% | 87.3% | 72.5% | 87.5% | 100% | 27.5% | 37.5% | 45% | 0.03658 µg/min | 80% | 97.5% | 99% | 75% | 92.5% | 92.5% | 82.5% | 92.5% | 100% | pest or weed control at 280 g/ha ([1]; 336 h, 14 DAA): 85.3%; pest or weed control at 280 g/ha ([1]; 504 h, 21 DAA): 92.5%; pest or weed control at 280 g/ha ([2]; 168 h, 7 DAA): 77.5%; pest or weed control at 280 g/ha ([2]; 336 h, 14 DAA): 75%; pest or weed control at 280 g/ha ([2]; 504 h, 21 DAA): 100%; pest or weed control at 280 g/ha ([3]; 168 h, 7 DAA): 65%; pest or weed control at 280 g/ha ([3]; 336 h, 14 DAA): 72.5%; pest or weed control at 280 g/ha ([3]; 504 h, 21 DAA): 80%; pest or weed control at 280 g/ha ([5]; 168 h, 7 DAA): 72.5%; pest or weed control at 280 g/ha ([5]; 336 h, 14 DAA): 92.5%; pest or weed control at 280 g/ha ([5]; 504 h, 21 DAA): 100%; pest or weed control at 280 g/ha ([6]; 168 h, 7 DAA): 75%; pest or weed control at 280 g/ha ([6]; 336 h, 14 DAA): 92.5%; pest or weed control at 280 g/ha ([6]; 504 h, 21 DAA): 85%; pest or weed control at 280 g/ha ([7]; 168 h, 7 DAA): 80%; pest or weed control at 280 g/ha ([7]; 336 h, 14 DAA): 94%; pest or weed control at 280 g/ha ([7]; 504 h, 21 DAA): 97.5%
2 | O=C(COc1ccc(Cl)cc1Cl)NOCc1c(F)cccc1Cl [Compound D17] |  | 73.8% | 89.8% | 94.5% | 77.5% | 92.5% | 100% | 47.5% | 62.5% | 80% | 0.0287 µg/min | 80% | 100% | 100% | 86.5% | 96% | 92.5% | 77.5% | 98% | 100% | 
3 | O=C(COc1ccc(Cl)cc1Cl)NOCCc1ccccc1 [Compound D18] | 75% | 83.9% | 95.6% | 98.5% | 91% | 95% | 100% | 72.5% | 96.5% | 99.5% | 0.1777 µg/min | 85% | 98% | 98% | 96% | 96% | 95% | 75% | 92.5% | 100% | pest or weed control at 280 g/ha ([1]; 336 h, 14 DAA): 89.8%; pest or weed control at 280 g/ha ([1]; 504 h, 21 DAA): 93.5%; pest or weed control at 280 g/ha ([2]; 168 h, 7 DAA): 75%; pest or weed control at 280 g/ha ([2]; 336 h, 14 DAA): 80%; pest or weed control at 280 g/ha ([2]; 504 h, 21 DAA): 100%; pest or weed control at 280 g/ha ([3]; 168 h, 7 DAA): 67.5%; pest or weed control at 280 g/ha ([3]; 336 h, 14 DAA): 85%; pest or weed control at 280 g/ha ([3]; 504 h, 21 DAA): 100%; pest or weed control at 280 g/ha ([5]; 168 h, 7 DAA): 85%; pest or weed control at 280 g/ha ([5]; 336 h, 14 DAA): 99%; pest or weed control at 280 g/ha ([5]; 504 h, 21 DAA): 100%; pest or weed control at 280 g/ha ([6]; 168 h, 7 DAA): 72.5%; pest or weed control at 280 g/ha ([6]; 336 h, 14 DAA): 87.5%; pest or weed control at 280 g/ha ([6]; 504 h, 21 DAA): 75%; pest or weed control at 280 g/ha ([7]; 168 h, 7 DAA): 75%; pest or weed control at 280 g/ha ([7]; 336 h, 14 DAA): 97.5%; pest or weed control at 280 g/ha ([7]; 504 h, 21 DAA): 92.5%
4 | CONC(=O)COc1ccc(Cl)cc1Cl [Compound D19] | 79% | 87.2% | 94.3% | 94.5% | 93.5% | 85% | 100% | 87.5% | 98% | 100% | 0.61 µg/min | 80% | 100% | 99.5% | 90% | 93.5% | 75% | 85% | 95% | 98% | pest or weed control at 280 g/ha ([1]; 336 h, 14 DAA): 90.7%; pest or weed control at 280 g/ha ([1]; 504 h, 21 DAA): 93.2%; pest or weed control at 280 g/ha ([2]; 168 h, 7 DAA): 82.5%; pest or weed control at 280 g/ha ([2]; 336 h, 14 DAA): 82.5%; pest or weed control at 280 g/ha ([2]; 504 h, 21 DAA): 100%; pest or weed control at 280 g/ha ([3]; 168 h, 7 DAA): 75%; pest or weed control at 280 g/ha ([3]; 336 h, 14 DAA): 89%; pest or weed control at 280 g/ha ([3]; 504 h, 21 DAA): 98.5%; pest or weed control at 280 g/ha ([5]; 168 h, 7 DAA): 82.5%; pest or weed control at 280 g/ha ([5]; 336 h, 14 DAA): 98%; pest or weed control at 280 g/ha ([5]; 504 h, 21 DAA): 98.5%; pest or weed control at 280 g/ha ([6]; 168 h, 7 DAA): 77.5%; pest or weed control at 280 g/ha ([6]; 336 h, 14 DAA): 90%; pest or weed control at 280 g/ha ([6]; 504 h, 21 DAA): 72.5%; pest or weed control at 280 g/ha ([7]; 168 h, 7 DAA): 77.5%; pest or weed control at 280 g/ha ([7]; 336 h, 14 DAA): 94%; pest or weed control at 280 g/ha ([7]; 504 h, 21 DAA): 96.5%
